Laboratory results from paper PMC9890698 (BMC Biology, 2023).
Values joined by “and” are separate entries in the source; they are usually repeats but may differ in a detail not shown here. Identical values can stand only once.

Key:
Human P2Y1-R [1] = molecular target: T1, Human P2Y1-R (Homo sapiens, UniProt P47900); experiment: β-arrestin 2 recruitment BRET1 assay (β-arrestin 2-RLuc / P2Y1-R-Venus) in HEK293T cells; assay type: cell-based; conditions: Fig. S5; P2Y1-R; (+) apyrase; individual replicates
T1 construct: expressed in transfected cells; host or cells: HEK293T/17
Description: (§1) We assessed β-arrestin 2 recruitment to the receptor using BRET^1 assay. The assay measures the interaction between β-arrestin 2 fused to the Renilla reniformis luciferase (RLuc) energy donor and the receptor fused to fluorescent Venus energy acceptor (Fig. 3a). The recruitment of cytosolic β-arrestin 2 to the receptor at the plasma membrane in the presence of an agonist will promote a significant increase of the BRET signal compared to the basal state, reflecting the close proximity between the β-arrestin 2 energy donor and the receptor energy acceptor [22].
(§2) Human P2Y1-R (NCBI Reference Sequence: NM_002563.2) and P2Y12-R (NCBI Reference Sequence: NM_022788.3) were fused to double Myc epitope and rat AT1-R (NCBI Reference Sequence: NM_030985.4) to HA tag in N-terminus extracellular region. Alternatively, receptors were also fused to Venus tag in C-terminus intracellular region. Plasmids encoding Gαq-RLuc8, GFP2-Gγ2 and untagged Gβ1 were previously described. ADP was purchased from Sigma-Aldrich/Merck (Darmstadt, Germany). […] The Gq inhibitor (FR900359) was kindly supplied by Evi Kostenis (University of Bonn. Germany).
(§3) G protein activation and β-arrestin 2 recruitment were performed as previously described. Briefly, vectors encoding receptors, Gαq-RLuc8, GFP2-Gγ2, Gβ1, or β-arrestin 2 were transiently cotransfected into HEK293T/17 cells as indicated in the figure legends. Forty-eight hours after transfection, cells were washed and resuspended in PBS containing 0.1% (w/v) glucose at room temperature and then distributed (80 μg proteins/well) in a 96-well microplate (PerkinElmer). For G protein activation experiments (BRET^2), cells were incubated in the absence (basal BRET signal) or in the presence of ligand for 1 minute. BRET signal between RLuc8 and GFP2 was measured after addition of the luciferase substrate coelenterazine 400a (5 μM). For β-arrestin 2 recruitment (BRET^1), cells were stimulated with ligands for 5 or 15 min. BRET signal was recorded after incubation with coelenterazine h (5 μM) for 8 min. For kinetics studies, BRET signal between RLuc and Venus was recorded at 20-s intervals at basal state for the 2 first minutes and then for 5 min after ligand injection. For saturation curves (BRET^1), the expression level of Venus- or RLuc-tagged protein was determined by direct measurement of total fluorescence and luminescence respectively. Total fluorescence was first measured with an excitation filter at 485 nm and an emission filter at 520 nm. Then, the same sample was incubated for 8 minutes with 5 μM coelenterazine h and the total luminescence was measured. BRET^2 and BRET^1 readings were collected using a modified Infinite F500 (Tecan Group Ltd). The BRET^2 signal was calculated by the ratio of emission of GFP2 (510–540 nm) to RLuc8 (370–450 nm) and the BRET^1 signal by the ratio of emission of Venus (520–570 nm) to RLuc (370–480 nm). Sometimes, results are expressed as the Net BRET computed by deducting the BRET background signal (obtained in the presence of the energy donor alone) from the BRET signal (acquired from cells expressing both the energy donor and acceptor).

Human P2Y12-R = molecular target: T2, Human P2Y12-R (Homo sapiens, UniProt Q9H244); experiment: β-arrestin 2 recruitment BRET1 assay (β-arrestin 2-RLuc / P2Y12-R-Venus) in HEK293T cells; assay type: cell-based; conditions: Fig. S5; P2Y12-R; (+) apyrase; individual replicates
T2 construct: expressed in transfected cells; host or cells: HEK293T/17
Description: as §1, with “[22]. […]” for “[22].”
G protein activation and β-arrestin 2 recruitment were performed as previously described. […] BRET signal between RLuc8 and GFP2 was measured after addition of the luciferase substrate coelenterazine 400a (5 μM). […] BRET signal was recorded after incubation with coelenterazine h (5 μM) for 8 min. For kinetics studies, BRET signal between RLuc and Venus was recorded at 20-s intervals at basal state for the 2 first minutes and then for 5 min after ligand injection. For saturation curves (BRET^1), the expression level of Venus- or RLuc-tagged protein was determined by direct measurement of total fluorescence and luminescence respectively. Total fluorescence was first measured with an excitation filter at 485 nm and an emission filter at 520 nm. […] BRET^2 and BRET^1 readings were collected using a modified Infinite F500 (Tecan Group Ltd). […]

HEK293T cells (pcDNA3.1) = experiment: β-arrestin 2 BRET1 basal signal in control HEK293T cells without receptor (pcDNA3.1); assay type: cell-based, Human; conditions: Fig. S5, (+) apyrase, individual replicates
Description: Supplement 12915_2023_1528_MOESM8_ESM.xlsx, sheet "Fig. S5" | column: (+) apyrase

Human P2Y1-R [2] = molecular target: T1, Human P2Y1-R; experiment: Gαq protein activation BRET2 assay (Gαq-RLuc8/GFP2-Gγ2/Gβ1) in HEK293T cells expressing P2Y1-R; assay type: cell-based; conditions: Fig. S2a, P2Y1-R, individual replicates
Description: (§4) As previously described, using a BRET^2 (bioluminescence resonance energy transfer)-based assay, we directly monitored the basal Gαq protein activation by measuring the interaction between Gαq and Gγ2 subunits of the Gαqβ1γ2 heterotrimer complex. Indeed, this assay is based on the non-radiative transfer between the Renilla reniformis luciferase (RLuc8) energy donor fused to the Gαq protein subunit and the fluorescent GFP2 energy acceptor fused to Gγ2 protein subunit (Fig. 1a). […] By contrast, ligand-independent constitutive receptor activation or agonist-induced receptor activation will promote Gαq/Gγ2 subunit dissociation, thereby leading to a decrease of the basal BRET signal (Fig. 1a). […] To preclude any P2Y1-R activation by a passive release of ADP by HEK293T cells, we performed similar experiments in the presence of high concentration of apyrase (0.2U/mL) to degrade any trace of ADP in the medium (Additional File 2: Fig. S2a). Under these conditions, P2Y1-R expression still induces a marked and significant decrease of the basal BRET signal compared to control cells (pcDNA3.1), thereby supporting a P2Y1-R-dependent constitutive activation of Gαq protein. […] Of note, because P2Y1-R and AT1-R were respectively Myc- and HA-tagged and were thus detected using different primary antibodies, their expression at the cell surface cannot be compared between each other’s.
as §2
as §3, with “Sometimes, results are expressed as the Net BRET computed by deducting the BRET background signal (obtained in the presence of the energy donor alone) from the BRET signal (acquired from cells expressing both the energy donor and acceptor).” left out

[3] = system: Gαq protein in HEK293T cells (pcDNA3.1); experiment: Gαq protein activation BRET2 assay in control HEK293T cells without receptor (pcDNA3.1 / 0 μg); assay type: cell-based, Human; conditions: Fig. S2a, pcDNA3.1, individual replicates
Description: as §4
as §3, with “Briefly, vectors encoding receptors, Gαq-RLuc8, GFP2-Gγ2, Gβ1, or β-arrestin 2 were transiently cotransfected into HEK293T/17 cells as indicated in the figure legends. Forty-eight hours after transfection, cells were washed and resuspended in PBS containing 0.1% (w/v) glucose at room temperature and then distributed (80 μg proteins/well) in a 96-well microplate (PerkinElmer). For G protein activation experiments (BRET^2), cells were incubated in the absence (basal BRET signal) or in the presence of ligand for 1 minute.” left out, “For β-arrestin 2 recruitment (BRET^1), cells were stimulated with ligands for 5 or 15 min.” left out

T1 sequence (P47900 whole entry): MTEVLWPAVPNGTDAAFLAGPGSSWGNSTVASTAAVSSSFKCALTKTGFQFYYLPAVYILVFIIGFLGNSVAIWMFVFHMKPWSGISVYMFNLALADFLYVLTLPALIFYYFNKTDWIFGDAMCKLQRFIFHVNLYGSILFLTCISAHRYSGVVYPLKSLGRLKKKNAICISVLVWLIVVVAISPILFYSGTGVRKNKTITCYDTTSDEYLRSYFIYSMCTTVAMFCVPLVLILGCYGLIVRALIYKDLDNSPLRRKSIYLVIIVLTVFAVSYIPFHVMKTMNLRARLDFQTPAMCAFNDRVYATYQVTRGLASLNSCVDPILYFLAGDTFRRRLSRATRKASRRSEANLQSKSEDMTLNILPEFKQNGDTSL
T2 sequence (Q9H244 whole entry): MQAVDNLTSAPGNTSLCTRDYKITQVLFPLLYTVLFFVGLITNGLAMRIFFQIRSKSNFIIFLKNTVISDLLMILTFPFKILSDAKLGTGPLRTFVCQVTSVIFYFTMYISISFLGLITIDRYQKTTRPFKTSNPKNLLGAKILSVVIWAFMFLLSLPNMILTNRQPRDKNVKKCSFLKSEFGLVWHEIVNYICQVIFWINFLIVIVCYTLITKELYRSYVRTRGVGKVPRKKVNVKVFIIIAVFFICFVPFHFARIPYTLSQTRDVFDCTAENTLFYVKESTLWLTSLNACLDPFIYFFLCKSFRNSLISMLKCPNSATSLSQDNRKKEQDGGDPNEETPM

apyrase was tested, and the “Basal BRET signal” value (Human P2Y1-R [1]) was 0.9766 and 1.039 and 0.9705 and 1.011, the “Basal BRET signal” value (Human P2Y12-R) was 0.9157 and 0.9699 and 0.8998 and 0.9124 and the “Basal BRET signal” value (HEK293T cells (pcDNA3.1)) was 0.8767 and 0.9382 and 0.883 and 0.8696. For the same substance, the “Basal BRET signal” value (Human P2Y1-R [2]; (+) apyrase 1 min) was 0.9128 and 0.7477 and 0.6192 and 0.8378, the “Basal BRET signal” value (Human P2Y1-R [2]; (+) apyrase 5 min) was 0.6209 and 0.8174 and 0.9018 and 0.7551 and the “Basal BRET signal” value (Human P2Y1-R [2]; (+) apyrase 10 min) was 0.6295 and 0.8302 and 0.9025 and 0.7259. For the same substance, the “Basal BRET signal” value ([3]; (+) apyrase 1 min) was 2.035 and 1.852 and 1.218 and 1.795, the “Basal BRET signal” value ([3]; (+) apyrase 5 min) was 1.227 and 1.746 and 2.0243 and 1.801 and the “Basal BRET signal” value ([3]; (+) apyrase 10 min) was 1.204 and 1.749 and 1.987 and 1.796.
